According to PubChem BioAssay AID256 (DTP/NCI, 2004):
Where “and” joins values, the source holds several entries; their conditions need not be identical. Equal entries are not always repeated. Inconclusive results and toxic doses are left out. How the source made its calls: active means survival T/C of 150% or more; inactive means T/C below 125% in these data.

System: CD2F1 mice, L1210 leukemia ip, survival T/C
Assay: NCI In Vivo Anticancer Drug Screen. Data for tumor model L1210 Leukemia (intraperitoneal) in CD2F1 (CDF1) mice
Settings: higher = longer survival
How it was run: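 Activity against a transplanted murine tumor was judged by comparing the compound group with a vehicle group. The outcome in the treated animals was divided by that in the controls.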

[1] = endpoint: mean survival time, dose: 100.0 mg/kg/injection, schedule: Q04DX003 (ip), vehicle: saline
[2] = endpoint: mean survival time, dose: 200.0 mg/kg/injection, schedule: Q04DX003 (ip), vehicle: saline
[3] = endpoint: mean survival time, dose: 400.0 mg/kg/injection, schedule: Q04DX003 (ip), vehicle: saline
[4] = endpoint: mean survival time, dose: 100.0 mg/kg/injection, schedule: Q04DX003 (ip), vehicle: saline with Tween-80
[5] = endpoint: mean survival time, dose: 200.0 mg/kg/injection, schedule: Q04DX003 (ip), vehicle: saline with Tween-80
[6] = endpoint: mean survival time, dose: 400.0 mg/kg/injection, schedule: Q04DX003 (ip), vehicle: saline with Tween-80
[7] = endpoint: mean survival time, dose: 75.0 mg/kg/injection, schedule: Q01DX001 (ip), vehicle: saline
[8] = endpoint: mean survival time, dose: 100.0 mg/kg/injection, schedule: Q01DX009 (ip), vehicle: saline with Tween-80
[9] = endpoint: mean survival time, dose: 200.0 mg/kg/injection, schedule: Q01DX009 (ip), vehicle: saline with Tween-80
[10] = endpoint: mean survival time, dose: 400.0 mg/kg/injection, schedule: Q01DX009 (ip), vehicle: saline with Tween-80
[11] = endpoint: mean survival time, dose: 50.0 mg/kg/injection, schedule: Q01DX009 (ip), vehicle: saline with Tween-80
[12] = endpoint: mean survival time, dose: 100.0 mg/kg/injection, schedule: Q01DX009 (ip), vehicle: saline
[13] = endpoint: mean survival time, dose: 200.0 mg/kg/injection, schedule: Q01DX009 (ip), vehicle: saline

Measured: T/C

CC(C)(C)C1CC[N-]CC1.CC(C)(C)C1CC[N-]CC1.[Cl][Pt+2][Cl]
inactive: endpoint: mean survival time, dose: 75.0 mg/kg/injection, schedule: Q04DX002 (ip), vehicle: saline with Tween-80 95 % of control | endpoint: mean survival time, dose: 150.0 mg/kg/injection, schedule: Q04DX002 (ip), vehicle: saline with Tween-80 98 % of control | endpoint: mean survival time, dose: 300.0 mg/kg/injection, schedule: Q04DX002 (ip), vehicle: saline with Tween-80 107 % of control

Cc1ccc(C(CS(=O)(=O)c2ccc(C)cc2)c2ccccc2)cc1 (configuration not stated)
inactive: [1] 93 % of control | [2] 93 % of control | [3] 98 % of control

Nc1cccc2c(S(=O)(=O)O)cccc12
inactive: [1] 100 % of control | [2] 100 % of control | [3] 97 % of control

CCCCC(CC)C(O)CC(O)CC (configuration not stated)
inactive: [4] 92 % of control | [5] 91 % of control | [6] 91 % of control

C=CCNC(=O)C[n+]1cccc(C(=O)Nc2ccccc2)c1
inactive: [4] 97 % of control

BrCCN(CCBr)c1ccc2c3c(cccc13)-c1ccccc1-2
inactive: endpoint: mean survival time, dose: 1.5 mg/kg/injection, schedule: Q01DX Z (ip), vehicle: saline 113 % of control | endpoint: mean survival time, dose: 2.0 mg/kg/injection, schedule: Q01DX Z (ip), vehicle: saline 98 % of control | endpoint: mean survival time, dose: 3.2 mg/kg/injection, schedule: Q01DX Z (ip), vehicle: saline 110 % of control | endpoint: mean survival time, dose: 5.0 mg/kg/injection, schedule: Q01DX Z (ip), vehicle: saline 121 % of control

CC(C)N1CCSC1=S
inactive: endpoint: mean survival time, dose: 25.0 mg/kg/injection, schedule: Q01DX009 (ip), vehicle: saline sonified 101 % of control | endpoint: mean survival time, dose: 50.0 mg/kg/injection, schedule: Q01DX009 (ip), vehicle: saline sonified 98 % of control | endpoint: mean survival time, dose: 100.0 mg/kg/injection, schedule: Q01DX009 (ip), vehicle: saline sonified 106 % of control | [4] 100 % of control | endpoint: mean survival time, dose: 200.0 mg/kg/injection, schedule: Q01DX009 (ip), vehicle: saline sonified 88 % of control | [5] 99 % of control | [6] 97 % of control

C#CC[N+](CC)(CC)CCNC(=O)CCCCCCCCCCCCCCC
inactive: [7] 102 % of control

C=C[C](=C)[Pb]([CH2]C)([CH2]C)[CH2]C
inactive: [7] 100 % of control | endpoint: mean survival time, dose: 150.0 mg/kg/injection, schedule: Q01DX001 (ip), vehicle: saline 97 % of control | endpoint: mean survival time, dose: 300.0 mg/kg/injection, schedule: Q01DX001 (ip), vehicle: saline 107 % of control

OC(COc1ccccc1)COc1ccccc1
inactive: [8] 98 % of control | [9] 93 % of control | [10] 89 % of control

O=c1oc2c(ccc3ccccc32)c(O)c1-c1cccc2ccccc12
inactive: [11] 103 % of control | [8] 100 % of control | [9] 93 % of control

O=C1C(Cl)=C(Cl)C(=O)C(Cl)=C1Cl
inactive: endpoint: mean survival time, dose: 25.0 mg/kg/injection, schedule: Q01DX009 (ip), vehicle: saline with Tween-80 101 % of control | [11] 102 % of control | [8] 98 % of control

Cc1ccc2c(c1)Sc1ccc3ccccc3c1N2
inactive: [8] 95 % of control | endpoint: mean survival time, dose: 100.0 mg/kg/injection, schedule: Q04DX003 (ip), vehicle: Klucel (hydroxypropylcellulose) (HPC) 96 % of control | [9] 97 % of control | endpoint: mean survival time, dose: 200.0 mg/kg/injection, schedule: Q04DX003 (ip), vehicle: Klucel (hydroxypropylcellulose) (HPC) 95 % of control | [10] 97 % of control | endpoint: mean survival time, dose: 400.0 mg/kg/injection, schedule: Q04DX003 (ip), vehicle: Klucel (hydroxypropylcellulose) (HPC) 98 % of control

COC(=O)C(C(N)=O)C(=O)C1C(=O)N(c2ccccc2)N=C1C (configuration not stated)
inactive: endpoint: mean survival time, dose: 50.0 mg/kg/injection, schedule: Q04DX002 (ip), vehicle: saline with Tween-80 97 % of control | endpoint: mean survival time, dose: 100.0 mg/kg/injection, schedule: Q04DX002 (ip), vehicle: saline with Tween-80 93 % of control | endpoint: mean survival time, dose: 200.0 mg/kg/injection, schedule: Q04DX002 (ip), vehicle: saline with Tween-80 93 % of control

O=C(O)/C=C/C(=O)Nc1cccc(Oc2ccc([N+](=O)[O-])cc2[N+](=O)[O-])c1
inactive: [12] 96 % of control | [13] 100 % of control | endpoint: mean survival time, dose: 400.0 mg/kg/injection, schedule: Q01DX009 (ip), vehicle: saline 98 % of control

O=C1C=C[C@H](O)[C@@]2(CO)O[C@@H]12
inactive: endpoint: median survival time, dose: 0.31 mg/kg/injection, schedule: Q01DX009 (ip), vehicle: saline with Tween-80 102 % of control | endpoint: median survival time, dose: 0.62 mg/kg/injection, schedule: Q01DX009 (ip), vehicle: saline with Tween-80 101 % of control | endpoint: median survival time, dose: 1.25 mg/kg/injection, schedule: Q01DX009 (ip), vehicle: saline with Tween-80 118 % of control and 110 % of control | endpoint: median survival time, dose: 2.5 mg/kg/injection, schedule: Q01DX009 (ip), vehicle: saline with Tween-80 121 % of control and 123 % of control | endpoint: median survival time, dose: 5.0 mg/kg/injection, schedule: Q01DX009 (ip), vehicle: saline with Tween-80 114 % of control | endpoint: median survival time, dose: 10.0 mg/kg/injection, schedule: Q01DX009 (ip), vehicle: saline with Tween-80 118 % of control

CCOC(=O)c1[nH]c(=S)n(Cc2ccccc2)c1C(=O)OCC
inactive: endpoint: mean survival time, dose: 50.0 mg/kg/injection, schedule: Q04DX003 (ip), vehicle: saline with Tween-80 103 % of control | [4] 108 % of control | [5] 97 % of control

CNC1=C(C)C(=O)C2=C(C1=O)C(COC(N)=O)C1(O)C3C(CN21)N3C (configuration not stated)
inactive: endpoint: mean survival time, dose: 1.5 mg/kg/injection, schedule: Q01DX001 (ip), vehicle: water 98 % of control | endpoint: mean survival time, dose: 3.0 mg/kg/injection, schedule: Q01DX001 (ip), vehicle: water 100 % of control | endpoint: mean survival time, dose: 6.0 mg/kg/injection, schedule: Q01DX001 (ip), vehicle: water 100 % of control | endpoint: mean survival time, dose: 12.0 mg/kg/injection, schedule: Q01DX001 (ip), vehicle: water 100 % of control | endpoint: mean survival time, dose: 24.0 mg/kg/injection, schedule: Q01DX001 (ip), vehicle: water 98 % of control | endpoint: mean survival time, dose: 48.0 mg/kg/injection, schedule: Q01DX001 (ip), vehicle: water 115 % of control | endpoint: mean survival time, dose: 96.0 mg/kg/injection, schedule: Q01DX001 (ip), vehicle: water 108 % of control

O=C1Nc2ccc([N+](=O)[O-])c3c(C(=O)O)ccc1c23
inactive: [4] 98 % of control | [5] 104 % of control | [6] 101 % of control

NP(=O)(Oc1ccc([N+](=O)[O-])cc1)Oc1ccc([N+](=O)[O-])cc1
inactive: endpoint: mean survival time, dose: 62.5 mg/kg/injection, schedule: Q01DX001 (ip), vehicle: other 97 % of control | endpoint: mean survival time, dose: 125.0 mg/kg/injection, schedule: Q01DX001 (ip), vehicle: other 93 % of control | endpoint: mean survival time, dose: 250.0 mg/kg/injection, schedule: Q01DX001 (ip), vehicle: other 97 % of control | endpoint: mean survival time, dose: 500.0 mg/kg/injection, schedule: Q01DX001 (ip), vehicle: other 86 % of control

CC1(C(=O)O)CCCC2(C)C3=C(CCCC3)CCC12 (configuration not stated)
inactive: [8] 96 % of control | [4] 98 % of control | [9] 93 % of control | [5] 93 % of control | [10] 102 % of control | [6] 90 % of control

O=NN(CS(=O)(=O)O)c1ccccc1
inactive: endpoint: mean survival time, dose: 50.0 mg/kg/injection, schedule: Q01DX009 (ip), vehicle: saline 101 % of control | [12] 107 % of control | [13] 95 % of control

Cc1[nH]c2ccccc2c1C1=CC(=O)c2ccccc2C1=O
inactive: [4] 106 % of control | [5] 104 % of control | [6] 104 % of control

CN(C)c1ccc(/C=N/NC(=O)c2ccccc2NC(=O)c2ccccc2Cl)cc1
inactive: endpoint: mean survival time, dose: 50.0 mg/kg/injection, schedule: Q01DX009 (ip), vehicle: Klucel (hydroxypropylcellulose) (HPC) 87 % of control | endpoint: mean survival time, dose: 100.0 mg/kg/injection, schedule: Q01DX009 (ip), vehicle: Klucel (hydroxypropylcellulose) (HPC) 94 % of control | endpoint: mean survival time, dose: 200.0 mg/kg/injection, schedule: Q01DX009 (ip), vehicle: Klucel (hydroxypropylcellulose) (HPC) 91 % of control
